pIC50: −log10 of the molar value.
How the values were obtained:
[1] = biological target: T1, AMP-binding enzyme family protein (Yersinia pestis, UniProt Q56950); assay: Inhibition of Yersinia pestis YbtE assessed as incorporation of [3H]salicyl group to HMWP2 protein
T1 sequence (Q56950 whole entry): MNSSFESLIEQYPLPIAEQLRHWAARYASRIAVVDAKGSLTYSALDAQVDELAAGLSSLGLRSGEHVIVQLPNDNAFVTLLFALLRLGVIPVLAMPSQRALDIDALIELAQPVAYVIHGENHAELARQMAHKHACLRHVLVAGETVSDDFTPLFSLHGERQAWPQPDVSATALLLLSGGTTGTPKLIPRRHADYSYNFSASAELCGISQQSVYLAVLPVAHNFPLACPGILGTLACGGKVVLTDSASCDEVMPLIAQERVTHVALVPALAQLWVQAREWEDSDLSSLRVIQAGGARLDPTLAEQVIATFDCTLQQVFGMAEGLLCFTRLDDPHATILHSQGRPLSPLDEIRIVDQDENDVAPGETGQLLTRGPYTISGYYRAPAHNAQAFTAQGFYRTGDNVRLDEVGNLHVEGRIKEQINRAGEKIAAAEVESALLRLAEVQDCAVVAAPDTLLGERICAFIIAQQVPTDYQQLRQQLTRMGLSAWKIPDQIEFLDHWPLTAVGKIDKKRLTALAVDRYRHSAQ

[2] = tested on: Yersinia pestis; assay: Antimicrobial activity against Yersinia pestis KIM6-2082.1+ in presence of iron limiting PMH-D medium; format: functional, organism-based
[3] = tested on: Mycobacterium tuberculosis; assay: Antimycobacterial activity against Mycobacterium tuberculosis H37Rv in presence of iron rich GAST-D medium; format: functional, organism-based
[4] = tested on: Yersinia pestis; assay: Antimicrobial activity against Yersinia pestis KIM6-2082.1+ in presence of iron rich PMH-D medium; format: functional, organism-based
[5] = tested on: Mycobacterium tuberculosis; assay: Antimycobacterial activity against Mycobacterium tuberculosis H37Rv in presence of iron deficient GAST-D medium; format: functional, organism-based
[6] = Cytotoxicity against human HeLa cells after 24 hrs; format: cell-based; details: read-out: CD50
[7] = tested on: Yersinia pestis; assay: Ratio of MIC90 for Yersinia pestis KIM6-2082.1+ in iron rich PMH-D medium to MIC90 for Yersinia pestis KIM6-2082.1+ in presence of iron limiting PMH-D medium; format: functional
[8] = tested on: Mycobacterium tuberculosis; assay: Ratio of MIC90 for Mycobacterium tuberculosis H37Rv in iron rich GAST-D medium to MIC90 for Mycobacterium tuberculosis H37Rv in presence of iron limiting GAST-D medium; format: functional

SMILES | pIC50 [1] | pIC50 [2] | MIC90 [2] [µM] | pIC50 [3] | MIC90 [3] [µM] | pIC50 [4] | MIC90 [4] [µM] | pIC50 [5] | MIC90 [5] [µM] | CC50 at 24 h [6] [µM] | Ratio [7] | Ratio [8]
COc1ccc([C@@H]2CC(c3ccccc3O)=NN2C(=S)Nc2ccccc2)cc1 | 6.00 | 6.15 | > 19 | ≤ 3.30 | ≥ 500 | < 4.72 | > 19 | ≤ 3.30 | ≥ 500 | 5 |  | 
COc1ccccc1NC(=S)N1N=C(c2ccccc2O)C[C@H]1c1ccc(O)cc1 | 6.52 | 5.70 | 6 | ≤ 3.30 | ≥ 500 | < 4.72 | > 19 | ≤ 3.30 | ≥ 500 | 1 | >3 | 
Cc1ccc(NC(=S)N2N=C(c3ccccc3O)C[C@H]2c2ccc(O)cc2)cc1 | 6.40 | 6.05 | 3 | ≤ 3.30 | ≥ 500 | < 5.05 | > 9 | ≤ 3.30 | ≥ 500 | 3 | >3 | 
COc1ccccc1NC(=S)N1N=C(c2ccccc2O)C[C@H]1c1ccccc1O | 6.10 | 5.70 | 5 | ≤ 3.30 | ≥ 500 | < 5.30 | > 5 | ≤ 3.30 | ≥ 500 | 15 | >1 | 
Oc1ccccc1C1=NN(C(=S)Nc2ccccc2)[C@H](c2ccccc2Cl)C1 | 5.70 | < 5.30 | > 5 | ≤ 3.30 | ≥ 500 | < 5.30 | > 5 | ≤ 3.30 | ≥ 500 | 5 |  | 
Oc1ccccc1C1=NN(C(=S)Nc2ccccc2)[C@H](c2cccs2)C1 | 5.70 |  |  |  |  |  |  |  |  |  |  | 
Oc1ccc([C@@H]2CC(c3ccccc3)=NN2C(=S)Nc2ccccc2)cc1 | < 4.90 | < 4.42 | > 38 | ≤ 3.30 | ≥ 500 | < 4.42 | > 38 | ≤ 3.30 | ≥ 500 | 29 |  | 
Nc1ncnc2c1ncn2[C@@H]1O[C@H](COS(=O)(=O)NC(=O)c2ccccc2O)[C@@H](O)[C@H]1O | 8.15 |  |  |  |  |  |  |  |  |  |  | 
COc1cc([C@@H]2CC(c3ccccc3O)=NN2C(=S)Nc2ccc(C)cc2)ccc1O | 6.30 | 6.00 | 2 | ≤ 3.30 | ≥ 500 | < 4.72 | > 19 | ≤ 3.30 | ≥ 500 | 16 | >10 | 
COc1ccccc1[C@@H]1CC(c2ccccc2O)=NN1C(=S)Nc1ccccc1 | 5.52 | 6.40 | > 5 | < 3.60 | > 250 | < 5.30 | > 5 | < 3.60 | > 250 | 6 |  | 
Oc1ccccc1[C@@H]1CC(c2ccccc2)=NN1C(=S)Nc1ccccc1 | < 4.90 | < 4.72 | > 19 | 4.38 | 167 | < 4.72 | > 19 | 4.62 | 125 | 19 |  | 1
Oc1ccccc1C1=NN(C(=S)Nc2ccccc2)[C@H](c2ccc(Cl)cc2)C1 | 6.15 | 6.30 | 1 | ≤ 3.30 | ≥ 500 | < 5.30 | > 5 | ≤ 3.30 | ≥ 500 | 5 | >5 | 
COc1cc([C@@H]2CC(c3ccc(O)cc3O)=NN2C(=S)Nc2ccccc2OC)ccc1O | 6.70 | 4.77 | > 38 | 4.26 | 125 | < 4.42 | > 38 | 4.29 | 125 | 26 |  | 1
COc1ccc(NC(=S)N2N=C(c3ccc(O)cc3O)C[C@H]2c2ccc(O)c(OC)c2)cc1 | 6.00 | 6.70 | 1 | 3.78 | > 250 | < 5.05 | > 9 | 3.90 | > 250 | 31 | >9 | 
Oc1ccccc1C1=NN(C(=S)Nc2ccccc2)[C@H](c2ccccc2)C1 | 6.30 | < 5.05 | > 9 | ≤ 3.30 | ≥ 500 | < 5.05 | > 9 | ≤ 3.30 | ≥ 500 | 3 |  | 
NC(=S)N1N=C(c2ccccc2O)C[C@H]1c1ccc(O)cc1 | 6.30 | < 4.42 | > 38 | 3.90 | 333 | < 4.42 | > 38 | 5.10 | 21 | 398 |  | 16
Oc1ccc([C@@H]2CC(c3ccccc3O)=NN2C(=S)Nc2ccccc2)cc1 | 6.40 | < 4.72 | > 19 | 5.40 | 12 | < 4.72 | > 19 | 5.52 | 13 | 42 |  | 1
COc1cc([C@@H]2CC(c3ccccc3O)=NN2C(=S)Nc2ccccc2OC)ccc1O | 6.10 | 6.00 | 6 | ≤ 3.30 | ≥ 500 | < 5.05 | > 9 | ≤ 3.30 | ≥ 500 | 11 | >2 | 
C[C@@H]1C[C@@H]([C@H](O)CC2CC(=O)NC(=O)C2)C(=O)[C@@H](C)C1 [CYCLOHEXIMIDE] |  |  |  |  |  |  |  |  |  | 0.1 |  | 
COc1ccc(NC(=S)N2N=C(c3ccccc3O)C[C@H]2c2ccc(O)c(OC)c2)cc1 | 6.30 | 6.22 | 2 | ≤ 3.30 | ≥ 500 | < 3.82 | > 150 | ≤ 3.30 | ≥ 500 | 25 | >75 | 
CO[C@H]1/C=C/O[C@@]2(C)Oc3c(C)c(O)c4c(O)c(c(/C=N/N5CCN(C)CC5)c(O)c4c3C2=O)NC(=O)/C(C)=C\C=C\[C@H](C)[C@H](O)[C@@H](C)[C@@H](O)[C@@H](C)[C@H](OC(C)=O)[C@@H]1C [RIFAMPIN] |  |  |  |  | 0.008 |  |  |  | 0.008 | 190 |  | 1
COc1ccc(NC(=S)N2N=C(c3ccccc3O)C[C@H]2c2ccc(O)cc2)cc1 | 5.15 | 6.15 | 2 | ≤ 3.30 | ≥ 500 | < 4.72 | > 19 | ≤ 3.30 | ≥ 500 | 4 | >10 | 
Oc1ccc(C2=NN(C(=S)Nc3ccccc3)[C@H](c3ccc(O)cc3)C2)cc1 | < 4.90 | < 4.12 | > 75 | 3.98 | 250 | < 4.12 | > 75 | 4.08 | 125 | 248 |  | 2
Oc1ccc([C@@H]2CC(c3ccc(O)cc3O)=NN2C(=S)Nc2ccccc2)cc1 | 6.00 | 6.00 | 2 | < 3.60 | > 250 | < 3.82 | > 150 | 3.78 | > 250 | 63 | >75 | 
CN[C@@H]1[C@H](O[C@H]2[C@H](O[C@H]3[C@H](O)[C@@H](O)[C@H](N=C(N)N)[C@@H](O)[C@@H]3N=C(N)N)O[C@@H](C)[C@]2(O)C=O)O[C@@H](CO)[C@H](O)[C@H]1O (stereo in doubt) [STREPTOMYCIN] |  |  | 0.2 |  |  |  | 0.2 |  |  | > 500 | 1 | 
COc1cc([C@@H]2CC(c3ccccc3O)=NN2C(=S)Nc2ccccc2)ccc1O | 6.70 | 5.70 | 5 | ≤ 3.30 | ≥ 500 | < 3.82 | > 150 | ≤ 3.30 | ≥ 500 | 13 | >30 | 
